Experiments:
Assay in all cases: Substrate saturation kinetic analysis of purified GLYAT
[1] = molecular target: GLYAT (glyphosate-N-acetyltransferase), parent of saturation mutagenesis (already fit protein), SEQ ID NO:26 (derived from SEQ ID NO:1 and 2) (Bacillus licheniformis, UniProt Q65LG7, A28V/C29I/D131E/E14D/E65Q/E67K/E68K/E83D/G37R/I132T/I135A/I15L/I19V/I53V/I91V/K101R/K144R/K58Q/L105M/L26I/L97I/M75V/R47G/R92K/T89S/V114A/Y130F/Y45F); assay type: biochemical
Procedure: E. coli cultures in LB or 2×YT were grown overnight at 37° C. to saturation. The cells were used as a 2% inoculum into fresh media. When OD reached 0.6, IPTG was added to 0.2 mM and growth was continued for at least 6 hours. Cells were harvested by centrifugation and stored at −80° C. Cells were lysed with BPER (Pierce) containing 1 mM dithiothreitol, 0.2 mg/ml lysozyme, 2 mg/ml protease inhibitor cocktail (Sigma bacterial cell cocktail, P8465) and endonuclease. Lysate supernatants were passed through a column of NHS-activated Agarose (Thermo, #26197) derivatized with coenzyme A. Columns were washed with 25 mM Hepes, pH 7, containing progressively higher concentrations of KCl, then eluted with 25 mM Hepes, 100 mM KCl, 10% ethylene glycol and 1 mM acetyl CoA. Purity as evaluated by polyacrylamide gel electrophoresis was deemed consistently high enough to be assumed to be 100%. Protein concentration was determined with the Bradford assay using a large-scale lot of produced GLYAT protein as standard.
Kinetic parameters for various substrates were obtained using a range of seven substrate concentrations plus a blank containing none of the varied substrate. The non-varied substrate was present at a saturating concentration. Six-microliter aliquots of 50-fold concentrated stock solutions of the varied substrate were placed in a 96-well assay plate (Greiner BioOne UV-Star). Reactions were started with the addition of 294 ul of 25 mM Hepes, pH 7.0, 100 mM KCL, 10% ethylene glycol, the non-varied substrate and 10 to 200 nM enzyme. Absorbance was monitored for one minute with a Spectramax 384 Plus plate reader (Molecular Devices). If the amino acid present at position 30 (29 if alanine is absent at position 2) was cysteine, absorbance was monitored at 235 nm, which directly detects cleavage of the sulfoester bond of acetyl CoA. If the amino acid present at position 30 (29 if alanine is absent at position 2) was isoleucine, 0.5 mM 5,5′-dithiobis-(2-nitrobenzoic acid), which reacts with the coenzyme A thiol generated in the enzyme catalyzed reaction, was included in the reaction mix and absorbance was monitored at 412 nm. Initial rates were processed by the Softmax software to obtain kinetic parameters, using the double-reciprocal transformation.
The sequences with the new substitutions were derived through a combination of saturation mutagenesis of an already fit protein (SEQ ID NO:26) and an effective screening cascade as a means of identifying the improved genes (Examples 1-2). Regions in which novel changes are concentrated include helix H2a (positions 23 and 25-29) and the hairpin formed by strands B6 and B7 (positions 124-144). These two structures are components of the amino substrate binding site. Helix H3, the backbone to which the central beta sheet is anchored, is a region where 24% of the novel substitutions (17 out of 71) disclosed in Table 4 are concentrated into 11% of the positions (16 out of 146). None of those are near enough to the active site to influence substrate specificity directly. In three cases, multiple novel substitutions were discovered immediately or nearly adjacent to conserved amino acids shown previously to contribute to the catalytic mechanism (Siehl D L et. al., J Biol Chem, 282:11446, 2007). The catalytic amino acids for which this is the case are R21, R111, H138 and the nearby positions with multiple substitutions are 23, 112 and 137. The diverse amino acids at these positions may influence the orientation of the neighboring catalytic amino acids so as to selectively optimize catalysis with the preferred substrate, glyphosate.

[2] = molecular target: GLYAT (glyphosate-N-acetyltransferase), parent, SEQ ID NO:2 (Bacillus licheniformis, UniProt Q65LG7, A28V/D131E/E119K/E63D/E65Q/E67Q/E68K/E83D/E96Q/G37R/I132T/I135V/I15L/I2L/K101R/K144R/K58Q/L105M/L97I/R18K/T89S/V114A/Y130F/Y45F); conditions: pH 7.0
[3] = molecular target: GLYAT variant SEQ ID NO:3 (derived from SEQ ID NO:1 and 2) (Bacillus licheniformis, UniProt Q65LG7, A28V/D131E/E119K/E14D/E65Q/E67K/E68K/E83D/G37R/I132T/I135V/I15L/I19V/I2L/I53V/I91V/K101R/K144R/K58Q/L105M/L106I/L26I/L97I/M75V/R47G/R92K/T89S/V114A/Y130F/Y45F); conditions: pH 7.0
[4] = molecular target: GLYAT variant SEQ ID NO:4 (derived from SEQ ID NO:1 and 2) (Bacillus licheniformis, UniProt Q65LG7, D131E/E14D/E65Q/E67K/E68K/G37R/G38S/I132T/I135A/I15L/I19V/I53V/I91V/K101R/K144R/K58Q/L105M/L26I/L36T/L97I/M75V/R47G/R92K/T33S/T89S/V114A/Y130F/Y31F/Y45F); conditions: pH 7.0
[5] = molecular target: GLYAT variant SEQ ID NO:5 (derived from SEQ ID NO:1 and 2) (Bacillus licheniformis, UniProt Q65LG7, A28V/D131E/E14D/E65Q/E67K/E68K/G37R/I132T/I135A/I15L/I19V/I53V/I91V/K101R/K144R/K58Q/L105M/L106I/L26I/L97I/M75V/R47G/R92K/T89S/V114A/Y130F/Y45F); conditions: pH 7.0
[6] = molecular target: GLYAT variant SEQ ID NO:9 (derived from SEQ ID NO:1 and 2) (Bacillus licheniformis, UniProt Q65LG7, A28V/D131E/E119K/E14D/E65Q/E67K/E68K/G37R/G38S/I132T/I135A/I15L/I19V/I53V/I91V/K101R/K144R/K58Q/L105M/L26I/L97I/M75V/R47G/R92K/T89S/V114A/Y130F/Y45F); conditions: pH 7.0
[7] = pH 7.0, non-varied substrate saturating

Chain of GLYAT (glyphosate-N-acetyltransferase), parent of saturation mutagenesis (already fit protein), SEQ ID NO:26 (derived from SEQ ID NO:1 and 2) (Q65LG7 entry or part of it with the stated changes): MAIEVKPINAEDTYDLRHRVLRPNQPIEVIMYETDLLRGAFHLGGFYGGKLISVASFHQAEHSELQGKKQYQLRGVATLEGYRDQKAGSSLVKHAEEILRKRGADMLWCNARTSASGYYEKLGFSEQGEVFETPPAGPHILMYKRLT
Chain of GLYAT (glyphosate-N-acetyltransferase), parent, SEQ ID NO:2 (Q65LG7 entry or part of it with the stated changes): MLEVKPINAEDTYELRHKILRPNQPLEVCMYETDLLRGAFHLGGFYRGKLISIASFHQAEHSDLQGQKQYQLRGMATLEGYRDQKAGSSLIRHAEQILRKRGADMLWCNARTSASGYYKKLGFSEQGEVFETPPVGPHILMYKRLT

`N[C@@H](CC(=O)O)C(=O)O` [aspartate] was tested, and the “Asp as % of glyph (kcat/KM asp / kcat/KM glyph)” value ([1]; pH 7.0) was 0.038%, the “kcat (aspartate)” value [1, 7] was 1.5 s⁻¹ and the “kcat/KM (aspartate)” value [1, 7] was 16 M⁻¹ s⁻¹. For the same compound, the “Asp as % of glyph (kcat/KM asp / kcat/KM glyph)” value [2] was 0.574%, the “Asp as % of glyph (kcat/KM asp / kcat/KM glyph)” value [3] was 0.403% and the “Asp as % of glyph (kcat/KM asp / kcat/KM glyph)” value [4] was 0.210%. For the same compound, the “Asp as % of glyph (kcat/KM asp / kcat/KM glyph)” value [5] was 0.059% and the “Asp as % of glyph (kcat/KM asp / kcat/KM glyph)” value [6] was 0.073%.
